Experimental findings from ChEMBL document CHEMBL1130981, “DNA gyrase inhibitory activity of ellagic acid derivatives” (Bioorg Med Chem Lett, 1998) are described below.

The assay concerns the target DNA gyrase (Escherichia coli, UniProt P0AES4+P0AES6). Nature of the assay: Inhibition of DNA gyrase supercoiling in Escherichia coli. Type of assay: protein-complex assay.

On to `O=c1oc2c(O)c(O)ccc2c2ccc(O)cc12`, for which the IC50 is 328 µM. With `O=c1oc2c(O)c(O)ccc2c2cc(F)ccc12` the figure was 447 µM. With `O=c1oc2cc(O)c(O)cc2c2cc(O)c(O)cc12` the figure was 307 µM; with `O=c1oc2c(F)c(F)ccc2c2cc(O)c(O)cc12`, 151 µM; with `Cc1cc(O)c(O)c2oc(=O)c3cc(O)c(O)cc3c12`, 511 µM. With `O=c1oc2c(Cl)c(Cl)ccc2c2cc(O)c(O)cc12`, the midpoint of inhibition, the IC50, lay at 942 µM. With `Cc1cc(O)c(O)c2oc(=O)c3ccc(F)cc3c12` the figure was above 1920 µM; with `O=c1oc2c(O)c(O)ccc2c2cc(O)c(O)cc12`, 500 µM.

The compound `O=C1c2cc(O)c(O)cc2-c2cc(O)c(O)cc21` had an IC50 of 53.2 µM. With `O=c1oc2cc(O)c(O)cc2c2cc(F)ccc12` the figure was 1500 µM; with `ONC1c2cc(O)c(O)cc2-c2cc(O)c(O)cc21`, 7.66 µM.

On to `O=c1oc2ccccc2c2ccccc12`, for which the half-maximal inhibitory concentration (IC50) is above 2550 µM. With `O=c1oc2c(O)c(O)ccc2c2ccccc12` the figure was above 2190 µM. With `O=c1oc2ccccc2c2cc(O)c(O)cc12` the figure was above 2190 µM. Regarding `O=c1oc2c(O)c(O)cc3c(=O)oc4c(O)c(O)cc1c4c23` [ELLAGIC ACID], the concentration for half-maximal inhibition (IC50) is 156 µM.
